Reference: the NIST ThermoML archive (doi:10.1016/j.jct.2010.06.012)
Several values for one entry are separate records, joined by “and”; a condition that tells them apart may be missing. Equal entries are not always repeated.

Settings: Crystal, Calculated from knudsen effusion weight loss

Ic1ccc(-n2cccc2)cc1 [1-(4-iodophenyl)pyrrole]
Settings	vapor or sublimation pressure
319.11 K	0.000107 kPa and 0.000112 kPa and 0.000109 kPa
321.19 K	0.000142 kPa and 0.00014 kPa and 0.000137 kPa
323.18 K	0.000174 kPa and 0.000169 kPa
325.12 K	0.000218 kPa and 0.000216 kPa and 0.00021 kPa
327.19 K	0.000274 kPa and 0.00027 kPa and 0.000265 kPa
329.18 K	0.000336 kPa and 0.000331 kPa and 0.000329 kPa
331.11 K	0.000402 kPa and 0.000421 kPa and 0.000416 kPa
333.17 K	0.00052 kPa and 0.000522 kPa and 0.000508 kPa
335.17 K	0.000639 kPa and 0.000628 kPa and 0.000624 kPa
337.12 K	0.000778 kPa and 0.000814 kPa and 0.000806 kPa
339.19 K	0.001022 kPa and 0.001014 kPa and 0.000977 kPa
341.17 K	0.001237 kPa and 0.001212 kPa and 0.001211 kPa

Clc1ccc(-n2cccc2)cc1 [1-(4-chlorophenyl)-1H-pyrrole]
Settings	vapor or sublimation pressure
295.22 K	0.000183 kPa and 0.000176 kPa and 0.000175 kPa
297.17 K	0.000227 kPa and 0.00022 kPa and 0.000219 kPa
299.22 K	0.000289 kPa and 0.000279 kPa and 0.000275 kPa
301.12 K	0.000363 kPa and 0.000364 kPa and 0.000378 kPa
303.17 K	0.000467 kPa and 0.000463 kPa and 0.000451 kPa
305.21 K	0.000595 kPa and 0.000571 kPa and 0.000558 kPa
307.1 K	0.000744 kPa and 0.000715 kPa and 0.000706 kPa
309.12 K	0.000904 kPa and 0.000892 kPa and 0.000871 kPa
311.22 K	0.001132 kPa and 0.001115 kPa and 0.001084 kPa

Fc1ccc(-n2cccc2)cc1 [1-(4-fluorophenyl)pyrrole]
Settings	vapor or sublimation pressure
271.14 K	0.000157 kPa and 0.000149 kPa and 0.000152 kPa
273.16 K	0.0002 kPa and 0.000197 kPa
275.2 K	0.000237 kPa and 0.000236 kPa
277.18 K	0.000303 kPa and 0.000288 kPa and 0.000313 kPa
279.18 K	0.000396 kPa and 0.000393 kPa and 0.000391 kPa
281.18 K	0.000509 kPa and 0.000505 kPa and 0.000497 kPa
283.12 K	0.000688 kPa and 0.000694 kPa and 0.00068 kPa
285.13 K	0.000863 kPa and 0.000854 kPa and 0.000832 kPa
287.17 K	0.001072 kPa and 0.001068 kPa and 0.001064 kPa
